# From patent US6774254B2, “Gold complexes” (National University of Singapore, priority 2000, dated 2004)
# Experiments:
# [1] = test system: K36 lymphoma (T-cell lymphoma); test: in vivo anti-tumor activity, K36 lymphoma in AKR mice (primary screen); details: at MTTD, i.p. Day 1-7, tumor weights Day 8-11
# Protocol: (§1) The in vivo anti-tumor activities of the phosphino-gold(I) compounds were evaluated using a murine tumor model, K36 lymphoma (T-cell lymphoma), inoculated subcutaneously into the AKR inbred mice. K36 lymphoma is a transformed cell line which originated from the AKR mice infected with murine leukemic retrovirus. The K36 lymphoma cells are naturally tumorigenic in syngenic AKR mice and is non-immunogenic to the host mice. The in vivo tests were carried out according to the following protocol:
# Day 0: K36 lymphoma cells were washed with phosphate-buffered saline (PBS) for three times and suspended in RPMI 1640 medium at the concentration of 10×10^6 cells/mL 10^6 cells in 0.1 mL of the medium were implanted subcutaneously into each of the two flanks of inbred AKR mice with a ½-in, 28-gauge, 1-mL syringe. The mice were then randomly distributed into control and treatment groups with 5 mice/group.
# Day 1-7: The desired dose of a test agent was dissolved in a minimum amount (<50 μL) of dimethylacetamide (DMA), followed by addition of Cremaphor_EL (polyethoxylated castor oil, <30 μL) with mixing. Saline was added to dilute the drug solution and the desired dose was delivered in a volume of 5×0.3 mL for one group of mice (5 mice per group). In this case, the final concentration of dimethylacetamide was less than 3.3% and that of the carrier less than 2%. Formulation of a test agent was carried out just before injection into the animals. The test agent was injected intraperitoneally into the treatment groups of mice twice a day following the flexible schedule as recommended in the literature (Corbett, T. H.; Valeriote, F. A; LoRusso, P.; Polin, L; et. al. In “Anticancer Drug Development Guide: Preclinical Screening, Clinical Trials, and Approval”, (Ed. Teicher, B. A.), Humana Press Inc., Totowa, N.J., 1997 p 75-99.) to reach the most tolerated drug dose.
# (§2) Day 8-11: Tumor weights were estimated from two-dimensional measurement, following the formula:
# (§3) Tumor weight (in mg)=(a×b^2)/2,
# (§4) wherein a and b are tumor length and width (in mm), respectively. The usual T/C value was used to assess the in vivo anti-tumor activity. T refers to the total tumor weight of the treatment group (including zeros), whereas, C refers to the total tumor weight of the non-treatment control group (including zeros). According to the NCI (National Cancer Institute in USA) standard, a T/C value of 42% is considered significant anti-tumor activity.
# Furthermore, two compounds cisplatin (cis-diaminedichloroplatinum(II)) and [Au(dppe)2]Cl (dppe: 1,2-bis(diphenylphosphino)ethane) with known anti-tumor activities were also included in the In vivo test Table 2 summarizes the anti-tumor activities of (Sp)-1 and (Rp)-1.
# advanced K36 lymphoma = advanced K36 lymphoma model, treatment from Day 7; format: in vivo, AKR mice; details: for anti-tumor activity against advanced K36 tumor model in words (FIG. 1): treatment from Day 7, i.p. twice a day; for MTTD in advanced K36 model: treatment from Day 7, up to 4 days; for average ILS % (Increased Life Span): control average life span 21 days after tumour implantation
# Protocol: On Day 0, AKR mice were injected with K36 lymphoma cells. On Day 7, mice were divided into control and treatment groups. Treatment groups were injected intraperitoneally with either cisplatin, (Sp)-1, or (Rp)-1. Control groups were […] treated with any of the above compounds. On each subsequent day, the 3 treatment groups were injected with the respective compounds twice a day. Tumor weights were estimated from two-dimensional measurements on each day.
# The anti-tumor activities of (Sp)- and (Rp)-I were also assessed against advanced K36 lymphoma model. Also, the active positive control, cisplatin, was included in the evaluation.
# The protocol design for this test was similar as described above except that drug administrations began on Day 7 (Day 0 is the date of implantation). At this stage, the tumor sizes on mice averaged around 9×8 mm and the estimated average tumor weight was about 300 mg. Due to the extremely fast growth of the K36 lymphoma (the double time is around 1 day), there was limited time (up to 4 days) to escalate the drug dosage to the most tolerated level, before the tumor became too big to give a positive response to any drug treatment.
# The results are visualised in FIG. 1. […] They can markedly retard the tumor growth during the period of drug treatment and even after treatment. The average ILS % (Increased Life Span) of (Sp)-I and (Rp)-I was 48% and 31%, respectively (the average life span of the control group was 21 days after tumour implantation). Particularly, one mouse treated with (Sp)-I survived for 48 days after tumour implantation.
# K36 lymphoma = test: secondary in vivo evaluation, K36 lymphoma at three dosage levels; set-up: species or system AKR mice
# Protocol: as §1
# The mice were then randomly distributed into control and treatment groups with 5 mice/group.
# Day 1-7: The desired dose of a test agent was dissolved in a minimum amount (<50 μL) of dimethylacetamide (DMA), followed by addition of Cremaphor_EL (polyethoxylated castor oil, <30 μL) with mixing. Saline was added to dilute the drug solution and the desired dose was delivered in a volume of 5×0.3 mL for one group of mice (5 mice per group). […] Formulation of a test agent was carried out just before injection into the animals.
# as §2, §3
# as §4, with “zeros).” for “zeros). According to the NCI (National Cancer Institute in USA) standard, a T/C value of 42% is considered significant anti-tumor activity.”
# In addition, three dose levels of 0.67 decrements were used in the secondary in vivo evaluation studies of (Sp)-1 and (Rp)-1 against the K36 lymphoma. The purpose of testing at multiple dosage levels is to exclude agents with exceptionally steep dose-response curves, where only the most tolerated dose is active.
# Mahlavu (liver cancer) = test: cytotoxicity against human adherent tumor cell line Mahlavu; format: cell-based; details: four hours exposure, cells counted after 5 days
# Protocol: In addition, cytotoxicities of (Sp)-1 and (Rp)-1 against a human adherent tumor cell line, Mahlavu (liver cancer), were also evaluated according to the following protocol:
# Cryopreserved Mahlavu cells were thawed and cultured as a monolayer in the media M10 (Dulbecco's modified eagle's medium supplemented with 10% FCS and 100 units/mL penicillin and 100 μg/mL streptomycin) in a 75 cm^2 tissue culture flask. The flask was kept in a 5% CO2 humidified incubator at 37° C. Since the cells attached strongly to the bottom of culture flask, trypsin solution in PBS was used to detach the cells and then the Mahlavu cells were washed and counted as suspension cells.
# 10,000 cells were placed into each well of 6-well petri plates and incubated overnight to allow attachment to the plate. Triplicate samples of cells were allowed to react with the gold(I) complexes at three concentrations for four hours, followed by removal of the media. As before, a control with no drug treatment was included. The plates were then washed once with PBS(5 mL) and fresh media M10 (3 mL) was added. The plates were incubated at 37° C. in a CO2 incubator for 5 days. The Mahlavu cells In each well were trypsinized and counted as usual.
# The IC50 values of (Sp)-I and (Rp)-I against this adherent tumor cell line were 6 and 8 μM, respectively. The IC50 values were determined as described above.
# Daudi (B-cell lymphoma) = test: human suspension tumor cell line assay, Daudi; format: cell-based; details: 2 h exposure, cells counted after 5 days; read-out: cytotoxicity IC50, Daudi
# Protocol: (§5) The human suspension tumor cell line assay determines the ability of a compound to inhibit the cells' ability to divide in vitro after a two hour exposure to the compound. The panel of human suspension tumor cell lines consist of Raji (B-cell lymphoma), Daudi (B-cell lymphoma), P3HR-1(B-cell lymphoma), and Molt-4 (T-cell leukemia). The cytotoxicity tests were carried out in vitro according to the following protocol:
# (§6) Cryopreserved tumor cells were thawed and cultured in the media RPMI-1640 supplemented with 10% fetal calf serum (FCS) and 100 units/mL penicillin and 100 μg/mL streptomycin (“media R10”), in a 5% CO2 humidified incubator at 37° C. They were subcultured every three days in a 75 cm^2 tissue culture flask.
# (§7) A hemocytometer with four 1×1×0.1 mm^3 cells was used to count the cell concentration of a specified cell suspension solution. Trypan Blue was used to determine the viability of the counted cells, as live cells can exclude the dye penetration.
# (§8) Each of Raji, Daudi, P3HR-1 and Molt-4 cells were dispensed into 6-well petri plates with 30,000 cells per well and were labelled in groups of three. A drug solution with a specified concentration was freshly prepared by dilution of a gold complex solution (1 mM) in DMSO with the media R10. […] The number of cells in each well was counted and the average value of triplicate samples were determined for each drug concentration.
# P3HR-1 (B-cell lymphoma) = test: human suspension tumor cell line assay, P3HR-1; format: cell-based; details: 2 h exposure, cells counted after 5 days; read-out: cytotoxicity IC50, P3HR-1
# Protocol: as §5, §6, §7, §8
# Raji (B-cell lymphoma) = test: human suspension tumor cell line assay, Raji; format: cell-based; details: 2 h exposure, cells counted after 5 days; read-out: cytotoxicity IC50, Raji
# Protocol: as §5, §6, §7, §8
# Molt-4 (T-cell leukemia) = test: human suspension tumor cell line assay, Molt-4; format: cell-based; details: 2 h exposure, cells counted after 5 days; read-out: cytotoxicity IC50, Molt-4
# Protocol: as §5, §6, §7, §8
# [2] = dose levels of 54 and 36 μmol/kg
SMILES,T/C (tumor weight treated/control x 100) [1] [%],anti-tumor activity against advanced K36 tumor model in words (FIG. 1) (advanced K36 lymphoma),MTTD in advanced K36 model (advanced K36 lymphoma) [µmol/kg],T/C (K36 lymphoma; dosage 24 μmol/kg) [%],T/C (K36 lymphoma; dosage 36 μmol/kg) [%],T/C (K36 lymphoma; dosage 54 μmol/kg) [%],in vivo activity in words (K36 lymphoma; dosage level of 24 μmol/kg),in vivo activity in words (K36 lymphoma; [2]),IC50 (Mahlavu (liver cancer)) [µM],IC50 (Daudi (B-cell lymphoma)) [nM],IC50 (P3HR-1 (B-cell lymphoma)) [nM],average ILS % (Increased Life Span) (advanced K36 lymphoma) [%],IC50 (Raji (B-cell lymphoma)) [nM],IC50 (Molt-4 (T-cell leukemia)) [nM],survival of one treated mouse after tumour implantation (advanced K36 lymphoma; one mouse) [days]
"N.N.[Cl][Pt][Cl] [Cisplatin, cis-diaminedichloroplatinum(II), reference compound]",6,did not inhibit the growth of the advanced K36 lymphoma at all,28,–,–,–,–,–,–,–,–,–,–,–,–
"CCOC(=O)C1C(P(c2ccccc2)c2ccccc2)C2C(C)=C(C)C1P2c1ccccc1.[Cl][Au].[Cl][Au] [(Rp)-I, μ-{(1α,4α,5α(S),6β(R),7R)-5-(diphenylphosphino)-2,3-dimethyl-6-(ethoxycarbonyl)-7-phenyl-7-phosphabicyclo[2.2.1]hept-2-ene-P5,P7}bis[chlorogold(I)]]",6,significant anti-tumor activities,32,38,14,6,moderate activity,highly active,8,500,200,31,300,1000,–
"CCOC(=O)C1C(P(c2ccccc2)c2ccccc2)C2C(C)=C(C)C1P2c1ccccc1.[Cl][Au].[Cl][Au] [(Sp)-I, μ-{(1α,4α,5α(R),6β(S),7S)-5-(diphenylphosphino)-2,3-dimethyl-6-(ethoxycarbonyl)-7-phenyl-7-phosphabicyclo[2.2.1]hept-2-ene-P5,P7}bis[chlorogold(I)]]",5,significant anti-tumor activities,32,33,12,5,moderate activity,highly active,6,800,500,48,500,1000,48
"[Au+].[Cl-].c1ccc(P(CCP(c2ccccc2)c2ccccc2)c2ccccc2)cc1.c1ccc(P(CCP(c2ccccc2)c2ccccc2)c2ccccc2)cc1 [[Au(dppe)2]Cl, reference compound]",12,–,–,–,–,–,–,–,–,–,–,–,–,–,–
